Measurements as given in patent publication US7615380B2, “Methods for modulating an immune response by modulating KRC activity” (President and Fellows of Harvard College, priority 2001, dated 2009).

How the values were obtained:
TNFα = test: Northern blot of endogenous TNFα in stably transfected RAW macrophage clones; format: cell-based; details: stable RAW transfectants, baseline
Procedure: Northern blotting analysis was performed using total RNA made from RAW cell lines transfected with an empty vector as a control and from a panel of 9 independent RAW clones stably transfected with full-length KRC (upper) and 3 RAW clones stably transfected with dominant negative KRC (lower). The blot was probed with a TNFα cDNA and with HPRT as loading control.
HEK293 cells ([…] per well) were seeded in 6 well plates, and 12 h later cells were transfected with EFECTENE™ (Qiagen) with 25 ng of a 2XNFκB-luciferase (Luc) reporter gene plasmid and 0.5 μg of the indicated TRAF and KRC expression vectors. Total amounts of transfected DNA were kept constant by supplementing with control empty expression vector plasmids as needed. Cell extracts were prepared 24 h after transfection, and reporter gene activity was determined via the luciferase assay system (PROMEGA). PRSV-βGal vector (50 ng) was used to normalize for transfection efficiency by measuring β galactosidase activity using the Galacton-PLUS substrate system (TROPIX, Inc.). Whenever indicated, the cells were treated for 4 hours with TNFα or IL-1 (10 ng/ml). To generate stable transfectants, EFECTENE™ mediated transfection of the RAW cell line was performed and clones were selected and maintained in complete medium supplemented with G418 (2 mg/ml). […]

MAPK (ERK, p38, JNK) = test: MAPK activity in Jurkat cells (PathDetect reporter, immunoprecipitation-kinase assay); format: cell-based, human
Procedure: FIG. 20(A) Jurkat cells were transiently transfected with AP-1 Luciferase reporter along with KRC and RasN17 DN vectors. 24 hours later cells were pretreated with Rottlerin (10 μM) and stimulated for 6 hours with PMA plus ionomycin. Luciferase activity was measured as above. FIG. 20(B) Jurkat cells were transfected with a GAL4 Luciferase reporter along with a GAL4 DNA binding domain, GAL4-ATF2, or GAL4-ELK1 with or without KRC. 24 hours later, cells were stimulated with PMA plus ionomycin and analyzed for Luciferase activity as above. FIG. 20(C) Jurkat cells were transiently transfected with FLAG-JNK2, and either Vector, KRC, or MKK7. 48 hours later, cells were stimulated with PMA plus ionomycin for 6 hours and JNK activity was determined by immunoprecipitation/kinase assay. […]
KRC may enhance AP-1 function indirectly through the modulation of MAPK activity, kinases downstream of Ras that are known to potently stimulate AP-1 function (Binetruy, B., et al. (1991) Nature 351:122-127; Deng, T., and M. Karin (1994) Nature 371:171-175; Murphy, L., et al. (2002) Nat. Cell Biol. 4: 556-564). […] Co-expression of KRC with HA-ERK1, myc-ERK2, Flag-P38 and Flag-JNK2 was performed and the activity of each kinase was measured using an immunoprecipitation-kinase assay with specific substrates, GST-Elk1, GST-ATF2 and GST-Jun for each MAPK. […]

IL-2 = IL-2 ELISA in retrovirally transduced primary CD4+ T cells; format: cell-based; details: anti CD3 or anti CD3 plus CD28, 24 hours
Procedure: In panel A Jurkat T cells were stably transfected with vector (pEF) or KRC expression plasmids. Stable clones were stimulated for 18 hours with PMA (50 ng/mL) plus ionomycin (2 μM) and IL-2 production was measured by ELISA. In panel B Primary CD4+ T cells were activated for 36 hours and subsequently transduced with control (RV), KRC, or KRC dominant negative (ZAS2) bicistronic GFP-expressing retroviruses. GFP-positive cells were sorted and stimulated for 24 hours with anti-CD3 or anti-CD3/anti-CD28 antibodies and IL-2 production was measured by ELISA. In panel C CD4 T cells from KRC +/+ or −/− mice were stimulated with anti-CD3 (1.0 μg/mL)/CD28 (0.5 μg/mL) antibodies for 24 hours and IL-2 production was measured by ELISA. In panel D CD4 T cells from KRC +/+ or −/− mice were stimulated with anti-CD3/CD28 antibodies for 72 hours in the presence of 200 U/mL human IL-2. IFNγ production was measured by ELISA.
Activated CD4^+T cells were transduced by RV, RV-KRC or RV-ZAS2 as described previously (Szabo, S. J., et al. (2000) Cell 100:655-669).
Therefore, the effects of KRC overexpression were studied in primary CD4+T cells as well as in the Jurkat line using a retroviral delivery system to express KRC in primary CD4+T cells. […] The ability of each population to produce IL-2 following subsequent activation by anti CD3 or anti CD3 plus CD28 was measured at 24 hours post-stimulation. […]

Substance: KRC: full-length KRC zinc finger protein (SEQ ID NO:2) overexpressed from an expression vector
- endogenous TNFα mRNA expression (TNFα): substantial decrease of baseline TNFα mRNA transcripts
- MAPK activity, immunoprecipitation-kinase assay (MAPK (ERK, p38, JNK); ERK1, ERK2, P38, JNK2): no detectable effect on any of the MAPKs
- MAPK / p38 activity, PathDetect reporter (ELK-1, ATF2) (MAPK (ERK, p38, JNK); Jurkat cells): unable to modulate either MAPK or p38 activity
- IL-2 production, increase versus GFP control retrovirus (IL-2): 3 to 4 fold
